Measured values published in ChEMBL document CHEMBL1641534, “Synthesis and antibacterial activity study of a novel class of cationic anthraquinone analogs” (Bioorg Med Chem, 2011).
In brackets after ≈: the same amount, converted by molar mass. Activity calls are given as the source filed them. The rule behind the calls is not given here.

Legend:
Staphylococcus aureus [1] = experiment: microbe, parasite or virus in culture; assay type: functional; details: ATCC 25923
Description: (§1) Antibacterial activity against Staphylococcus aureus ATCC 25923 after 12 to 18 hrs by twofold dilution method

[2] = tested on: Mycolicibacterium smegmatis; experiment: Antibacterial activity against Mycobacterium smegmatis ATCC 14468 after 12 to 18 hrs by twofold dilution method; assay type: functional
Enterococcus faecalis [3] = experiment: Antibacterial activity against vancomycin-resistant Enterococcus faecalis ATCC 51299 after 12 to 18 hrs by twofold dilution method; assay type: functional
Escherichia coli [4] = experiment: Antibacterial activity against Escherichia coli ATCC 25922 after 12 to 18 hrs by twofold dilution method; assay type: functional
Klebsiella pneumoniae [5] = experiment: Antibacterial activity against Klebsiella pneumoniae ATCC 13883 after 12 to 18 hrs by twofold dilution method; assay type: functional
Pseudomonas aeruginosa [6] = experiment: Antibacterial activity against Pseudomonas aeruginosa ATCC 27853 after 12 to 18 hrs by twofold dilution method; assay type: functional
Staphylococcus aureus [7] = experiment: microbe, parasite or virus in culture; assay type: functional; details: ATCC 33591
Description: (§2) Antibacterial activity against methicillin-resistant Staphylococcus aureus ATCC 33591 after 12 to 18 hrs by twofold dilution method

Enterococcus faecalis [8] = experiment: Antibacterial activity against Enterococcus faecalis ATCC 29212 after 12 to 18 hrs by twofold dilution method; assay type: functional
Escherichia coli [9] = experiment: Antibacterial activity against Escherichia coli ATCC 25922 by agar diffusion assay; assay type: functional, organism-based
[10] = Solubility of the compound in aqueous medium; assay type: physicochemical; details: buffer
Staphylococcus aureus [11] = experiment: Antibacterial activity against Staphylococcus aureus ATCC 25923 by agar diffusion assay; assay type: functional, organism-based
[12] = tested on: Mycolicibacterium smegmatis; details: ATCC 14468
Staphylococcus aureus [13] = details: ATCC 25923
Description: as §1

Pseudomonas aeruginosa [14] = details: ATCC 27853
Escherichia coli [15] = details: ATCC 25922
Enterococcus faecalis [16] = details: ATCC 51299
Enterococcus faecalis [17] = details: ATCC 29212
Klebsiella pneumoniae [18] = details: ATCC 13883
Staphylococcus aureus [19] = details: ATCC 33591
Description: as §2

Molecule | MIC (Staphylococcus aureus [1]) [µg/mL] | MIC [2] [µg/mL] | MIC (Enterococcus faecalis [3]) [µg/mL] | MIC (Escherichia coli [4]) [µg/mL] | MIC (Klebsiella pneumoniae [5]) [µg/mL] | MIC (Pseudomonas aeruginosa [6]) [µg/mL] | MIC (Staphylococcus aureus [7]) [µg/mL] | MIC (Enterococcus faecalis [8]) [µg/mL] | Activity (Escherichia coli [9]) | solubility [10] | Activity (Staphylococcus aureus [11]) | also measured
CCCCCn1n[n+](C)c2c1C(=O)c1ccccc1C2=O.[Cl-] | 2 | 8 | 125 | 8 | 32 | ≥ 250 | 1 | ≥ 250 | – | – | – | –
Cn1nnc2c1C(=O)c1ccccc1C2=O | – | – | – | – | – | – | – | – | inactive | Insoluble | inactive | –
C[n+]1nn(Cc2ccccn2)c2c1C(=O)c1ccccc1C2=O.[Cl-] | 2 | 16 | ≥ 250 | 16 | 16 | ≥ 250 | 2 | ≥ 250 | – | – | – | –
CCCCCCCCn1nnc2c1C(=O)c1ccccc1C2=O | – | – | – | – | – | – | – | – | inactive | Insoluble | inactive | –
CCCCn1n[n+](C)c2c1C(=O)c1ccccc1C2=O.[Cl-] | 2 | 16 | ≥ 250 | 16 | 32 | ≥ 250 | 1 | ≥ 250 | – | – | – | –
CC(C)(C)OC(=O)N1CCC(n2nnc3c2C(=O)c2ccccc2C3=O)CC1 | – | – | – | – | – | – | – | – | inactive | Insoluble | inactive | –
CCCCCCCCn1n[n+](C)c2c1C(=O)c1ccccc1C2=O.[Cl-] | 0.032 | 1 | 125 | 8 | 8 | ≥ 250 | 0.5 | 125 | – | – | – | –
NC[C@H]1O[C@H](O[C@H]2[C@H](O)[C@@H](O[C@H]3O[C@H](CO)[C@@H](O)[C@H](N)[C@H]3O)[C@H](N)C[C@@H]2N)[C@H](O)[C@@H](O)[C@@H]1O [KANAMYCIN] | 1 (≈ 2.06 µM) | 1 (≈ 2.06 µM) | – | 2 (≈ 4.13 µM) | 0.5 (≈ 1.03 µM) | 125 (≈ 258 µM) | 125 (≈ 258 µM) | – | – | – | – | –
Cn1n[n+](C)c2c1C(=O)c1ccccc1C2=O.[Cl-] | 4 | 32 | 125 | 32 | 64 | 125 | 4 | ≥ 250 | – | – | – | –
CCn1n[n+](C)c2c1C(=O)c1ccccc1C2=O.[Cl-] | 1 | 16 | ≥ 250 | 16 | 32 | ≥ 250 | 1 | ≥ 250 | – | – | – | –
hexadecyltrimethylammonium bromide | – | – | – | – | – | – | – | – | – | – | – | MIC [12]: 1 µg/mL; MIC (Staphylococcus aureus [13]): 0.5 µg/mL; MIC (Pseudomonas aeruginosa [14]): 16 µg/mL; MIC (Escherichia coli [15]): 1 µg/mL; MIC (Enterococcus faecalis [16]): 4 µg/mL; MIC (Enterococcus faecalis [17]): 2 µg/mL; MIC (Klebsiella pneumoniae [18]): 1 µg/mL; MIC (Staphylococcus aureus [19]): 2 µg/mL
CCCCn1nnc2c1C(=O)c1ccccc1C2=O | – | – | – | – | – | – | – | – | inactive | Insoluble | inactive | –
CCCCCCCCCCCCCCCCn1nnc2c1C(=O)c1ccccc1C2=O | – | – | – | – | – | – | – | – | inactive | Insoluble | inactive | –
CN[C@H](CC(C)C)C(=O)N[C@H]1C(=O)N[C@@H](CC(N)=O)C(=O)N[C@H]2C(=O)N[C@H]3C(=O)N[C@H](C(=O)N[C@H](C(=O)O)c4cc(O)cc(O)c4-c4cc3ccc4O)[C@H](O)c3ccc(c(Cl)c3)Oc3cc2cc(c3O[C@@H]2O[C@H](CO)[C@@H](O)[C@H](O)[C@H]2O[C@H]2C[C@](C)(N)[C@H](O)[C@H](C)O2)Oc2ccc(cc2Cl)[C@H]1O [VANCOMYCIN] | – | – | 125 (≈ 86.3 µM) | ≥ 250 | ≥ 250 | ≥ 250 | – | 1 (≈ 0.69 µM) | – | – | – | –
C[n+]1nn(Cc2ccccc2)c2c1C(=O)c1ccccc1C2=O.[Cl-] | 2 | 8 | ≥ 250 | 8 | 8 | 125 | 0.5 | ≥ 250 | – | – | – | –
C[n+]1nn(C2CCNCC2)c2c1C(=O)c1ccccc1C2=O.[Cl-] | 2 | 16 | ≥ 250 | 32 | 64 | 64 | 2 | ≥ 250 | – | – | – | –
CCCCCCCCCCCCn1nnc2c1C(=O)c1ccccc1C2=O | – | – | – | – | – | – | – | – | inactive | Insoluble | inactive | –
CCCCCCCCCCCCCCCC[N+](C)(C)Cc1ccccc1.[Cl-] [CETALKONIUM CHLORIDE] | 2 | – | – | – | – | – | 1 | – | – | – | – | –
NCC[C@H](O)C(=O)N[C@@H]1C[C@H](N)[C@@H](O[C@H]2O[C@H](CN)[C@@H](O)[C@H](O)[C@H]2O)[C@H](O)[C@H]1O[C@H]1O[C@H](CO)[C@@H](O)[C@H](N)[C@H]1O [AMIKACIN] | 0.5 (≈ 0.854 µM) | 0.25 (≈ 0.427 µM) | ≥ 250 | 1 (≈ 1.71 µM) | 1 (≈ 1.71 µM) | 0.25 (≈ 0.427 µM) | 16 (≈ 27.3 µM) | 32 (≈ 54.6 µM) | – | – | – | –
CCCCCCCCCCCCn1n[n+](C)c2c1C(=O)c1ccccc1C2=O.[Cl-] | 0.032 | 1 | 4 | 2 | 2 | 16 | 0.25 | 4 | – | – | – | –
CCCCCn1nnc2c1C(=O)c1ccccc1C2=O | – | – | – | – | – | – | – | – | inactive | Insoluble | inactive | –
CCn1nnc2c1C(=O)c1ccccc1C2=O | – | – | – | – | – | – | – | – | inactive | Insoluble | inactive | –
NC[C@@H]1O[C@H](O[C@H]2[C@@H](O)[C@H](O[C@@H]3[C@@H](O)[C@H](N)C[C@H](N)[C@H]3O[C@H]3O[C@H](CN)[C@@H](O)[C@H](O)[C@H]3N)O[C@@H]2CO)[C@H](N)[C@@H](O)[C@@H]1O [FRAMYCETIN] | 1 (≈ 1.63 µM) | – | 125 (≈ 203 µM) | 4 (≈ 6.51 µM) | 2 (≈ 3.25 µM) | 64 (≈ 104 µM) | 125 (≈ 203 µM) | 16 (≈ 26 µM) | – | – | – | –
O=C1c2ccccc2C(=O)c2c1nnn2Cc1ccccn1 | – | – | – | – | – | – | – | – | inactive | Insoluble | inactive | –
O=C1c2ccccc2C(=O)c2c1nnn2Cc1ccccc1 | – | – | – | – | – | – | – | – | inactive | Insoluble | inactive | –
